In US20260258032A1, “TYROSINE KINASE 2 INHIBITORS AND USES THEREOF” (BIOGEN MA INC., priority 2022, published 2026):
Structures can show the parent of a compound that is named as a salt.

Experiments:
JH2 domain of human Tyk2 = target: T1, JH2 domain of human Tyk2 (Homo sapiens, UniProt P29597); experiment: JH2 biochemical assay (TR-FRET probe displacement); assay type: binding; conditions: JH2 biochemical assay
T1 construct: 10×His-tagged TYK2 JH2 domain (amino acid 575-876)
Procedure: The inhibitory potency of compounds of the disclosure against the kinase activity of recombinantly generated JH2 domain of human Tyk2 was evaluated in a plate-based assay using a TR-FRET assay platform. Briefly, 2 nM of recombinant JH2 domain [10×His-tagged TYK2 JH2 domain (amino acid 575-876)] was combined with 2 nM probe ((S)-6-amino-9-(2-carboxy-4-((1-(3-(8-methyl-5-(methylamino)-8H-imidazo[4,5-d]thiazolo[5,4-b]pyridin-2-yl)phenyl)ethyl)carbamoyl)phenyl)-3-iminio-5-sulfo-3H-xanthene-4-sulfonate), 0.1 nM Tb-labeled anti-His antibody, and compounds of disclosure for 60 minutes. Compounds are tested at either […] top concentration, 10 points of 3-fold dilution. The TR-FRET signal […] by compounds and signal was calculated by taking the ratio of fluorescence at 520 nm and 495 nm. The data was normalized and the percent activity versus log concentration of compound was fitted with a 4-parameter logistic model to generate IC50 curves.

[1] = system: Tyk2 kinase activity on STAT4; experiment: pSTAT4 cell assay (MSD, NK92 cells); assay type: cell-based; conditions: compounds 1 hr, stimulated 15 minutes
Procedure: The inhibitory potency of compounds of the disclosure against the Tyk2 kinase activity on STAT4 was evaluated using an MSD-platform plate-based assay format. NK92 cells natively expressing STAT4 and Tyk2 were serum-starved to reduce background phosphorylation levels, then cells were treated compounds for 1 hr with a 10-point four-fold dilution series starting at 10 μM. Cells were then stimulated with 30 ng/mL IL2 for 15 minutes. Cells were lysed and […] levels were quantitated using an MSD plate-based assay with anti-STAT4 antibodies. The data were normalized and the percent activity versus log concentration of compound were fitted with a 4-parameter logistic model to generate to generate IC50 curves.

T1 sequence (P29597 575-876): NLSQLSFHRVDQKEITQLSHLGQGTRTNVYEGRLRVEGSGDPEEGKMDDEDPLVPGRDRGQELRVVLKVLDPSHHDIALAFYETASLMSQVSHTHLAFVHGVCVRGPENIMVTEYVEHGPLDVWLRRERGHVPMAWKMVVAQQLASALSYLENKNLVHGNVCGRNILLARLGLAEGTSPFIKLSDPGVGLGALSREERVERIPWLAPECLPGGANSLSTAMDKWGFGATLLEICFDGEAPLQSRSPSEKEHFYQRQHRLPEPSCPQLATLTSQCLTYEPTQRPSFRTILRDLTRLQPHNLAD

SMILES	IC50 (JH2 domain of human Tyk2) [nM]	IC50 [1] [nM]
COCCNc1cc(C)cc(N2CC3(CC3)c3cnc(NC(C)=O)cc32)n1 [Example 191, N-(1′-(6-((2-methoxyethyl)amino)-4-methylpyridin-2-yl)-1′,2′-dihydrospiro[cyclopropane-1,3′-pyrrolo[3,2-c]pyridin]-6′-yl)acetamide]	100 to 1000	≥ 1000
CC(=O)Nc1cc2c(cn1)C1(CC1)CN2c1cc(-c2ncn(C)n2)nc(C(C)(F)F)n1 [Example 300, N-(1′-(2-(1,1-difluoroethyl)-6-(1-methyl-1H-1,2,4-triazol-3-yl)pyrimidin-4-yl)-1′,2′-dihydrospiro[cyclopropane-1,3′-pyrrolo[3,2-c]pyridin]-6′-yl)acetamide]	≤ 10	100 to 1000
CC(=O)Nc1cc2c(cn1)C1(CC1)CN2c1cc(C)nc(OCCF)n1 [Example 288, N-(1′-(2-(2-fluoroethoxy)-6-methylpyrimidin-4-yl)-1′,2′-dihydrospiro[cyclopropane-1,3′-pyrrolo[3,2-c]pyridin]-6′-yl)acetamide]	≤ 10	100 to 1000
CCC1(C#N)CN(c2cc(C)cc(N3CC4(CC4)c4cnc(NC(C)=O)cc43)n2)C1 [Example 197, N-(1′-(6-(3-cyano-3-ethylazetidin-1-yl)-4-methylpyridin-2-yl)-1′,2′-dihydrospiro[cyclopropane-1,3′-pyrrolo[3,2-c]pyridin]-6′-yl)acetamide]	10 to 100	≥ 1000
CC(=O)Nc1cc2c(cn1)C1(CC1)CN2c1cc(C)nc(N2CCC(O)C2)n1 (stereo not drawn) [Example 214, N-(1′-(2-(3-hydroxypyrrolidin-1-yl)-6-methylpyrimidin-4-yl)-1′,2′-dihydrospiro[cyclopropane-1,3′-pyrrolo[3,2-c]pyridin]-6′-yl)acetamide]	100 to 1000	≥ 1000
CC(=O)Nc1cc2c(cn1)C1(CC1)CN2c1nc(C)cc(F)n1 [Example 331, N-(1′-(4-fluoro-6-methylpyrimidin-2-yl)-1′,2′-dihydrospiro[cyclopropane-1,3′-pyrrolo[3,2-c]pyridin]-6′-yl)acetamide trifluoroacetate]	100 to 1000	≥ 1000
CC(=O)Nc1cc2c(cn1)C1(CC1)CN2c1cc(C)cc(N2CC(C#N)(CF)C2)n1 [Example 196, N-(1′-(6-(3-cyano-3-(fluoromethyl)azetidin-1-yl)-4-methylpyridin-2-yl)-1′,2′-dihydrospiro[cyclopropane-1,3′-pyrrolo[3,2-c]pyridin]-6′-yl)acetamide]	10 to 100	100 to 1000
CC(=O)Nc1cc2c(cn1)C1(CC1)CN2c1cc(C)cc(C23COC(C)(C2)C3)n1 [Example 306, N-(1′-(4-methyl-6-(1-methyl-2-oxabicyclo[2.1.1]hexan-4-yl)pyridin-2-yl)-1′,2′-dihydrospiro[cyclopropane-1,3′-pyrrolo[3,2-c]pyridin]-6′-yl)acetamide]	10 to 100	≥ 1000
CC(=O)Nc1cc2c(cn1)C1(CC1)CN2c1cc(C)cc(N2CC(C)(O)C2)n1 [Example 205, N-(1′-(6-(3-hydroxy-3-methylazetidin-1-yl)-4-methylpyridin-2-yl)-1′,2′-dihydrospiro[cyclopropane-1,3′-pyrrolo[3,2-c]pyridin]-6′-yl)acetamide]	10 to 100	≥ 1000
CC(=O)Nc1cc2c(cn1)C1(CC1)CN2c1cc(C)nc(-c2cnn(C3COC3)c2)n1 [Example 251, N-(1′-(6-methyl-2-(1-(oxetan-3-yl)-1H-pyrazol-4-yl)pyrimidin-4-yl)-1′,2′-dihydrospiro[cyclopropane-1,3′-pyrrolo[3,2-c]pyridin]-6′-yl)acetamide trifluoroacetate]	10 to 100	≥ 1000
CC(=O)Nc1cc2c(cn1)C1(CC1)CN2c1cc([C@H]2C[C@H](C#N)C2)nc(C(C)(F)F)n1 [Example 75, N-(1′-(6-((1r,3r)-3-cyanocyclobutyl)-2-(1,1-difluoroethyl)pyrimidin-4-yl)-1′,2′-dihydrospiro[cyclopropane-1,3′-pyrrolo[3,2-c]pyridin]-6′-yl)acetamide or N-(1′-(6-((1s,3s)-3-cyanocyclobutyl)-2-(1,1-difluoroethyl)pyrimidin-4-yl)-1′,2′-dihydrospiro[cyclopropane-1,3′-pyrrolo[3,2-c]pyridin]-6′-yl)acetamide]	≤ 10	100 to 1000
CC(=O)Nc1cc2c(cn1)C1(CC1)CN2c1cc(OC2CC2)nc(C(C)(F)F)n1 [Example 6, N-(1′-(6-cyclopropoxy-2-(1,1-difluoroethyl)pyrimidin-4-yl)-1′,2′-dihydrospiro[cyclopropane-1,3′-pyrrolo[3,2-c]pyridin]-6′-yl)acetamide]	≤ 10	10 to 100
CC(=O)Nc1cc2c(cn1)C1(CC1)CN2c1cc(C)nc(-c2ccncc2)n1 [Example 107, N-(1′-(6-methyl-2-(pyridin-4-yl)pyrimidin-4-yl)-1′,2′-dihydrospiro[cyclopropane-1,3′-pyrrolo[3,2-c]pyridin]-6′-yl)acetamide]	–	≥ 1000
CC(=O)Nc1cc2c(cn1)C1(CC1)CN2c1cc(C)nc(OCC2COC2)n1 [Example 366, N-(1′-(6-methyl-2-(oxetan-3-ylmethoxy)pyrimidin-4-yl)-1′,2′-dihydrospiro[cyclopropane-1,3′-pyrrolo[3,2-c]pyridin]-6′-yl)acetamide trifluoroacetate]	–	100 to 1000
CC(=O)Nc1cc2c(cn1)C1(CC1)CN2c1cc(C)nc(-c2coc(C)n2)n1 [Example 109, N-(1′-(6-methyl-2-(2-methyloxazol-4-yl)pyrimidin-4-yl)-1′,2′-dihydrospiro[cyclopropane-1,3′-pyrrolo[3,2-c]pyridin]-6′-yl)acetamide]	–	100 to 1000
CC(=O)Nc1cc2c(cn1)C1(CC1)CN2c1cc(Oc2cnccn2)nc(C(C)(F)F)n1 [Example 146, N-(1′-(2-(1,1-difluoroethyl)-6-(pyrazin-2-yloxy)pyrimidin-4-yl)-1′,2′-dihydrospiro[cyclopropane-1,3′-pyrrolo[3,2-c]pyridin]-6′-yl)acetamide]	–	≥ 1000
CC(=O)Nc1cc2c(cn1)C1(CC1)CN2c1cc(C)nc(-n2nc(C)cc2C)n1 [Example 110, N-(1′-(2-(3,5-dimethyl-1H-pyrazol-1-yl)-6-methylpyrimidin-4-yl)-1′,2′-dihydrospiro[cyclopropane-1,3′-pyrrolo[3,2-c]pyridin]-6′-yl)acetamide]	–	≥ 1000
CC(=O)Nc1cc2c(cn1)C1(CC1)CN2c1cc(OCC2(C)COC2)nc(C(C)(F)F)n1 [Example 139, N-(1′-(2-(1,1-difluoroethyl)-6-((3-methyloxetan-3-yl)methoxy)pyrimidin-4-yl)-1′,2′-dihydrospiro[cyclopropane-1,3′-pyrrolo[3,2-c]pyridin]-6′-yl)acetamide trifluoroacetate]	–	≥ 1000
COC1(c2cc(C)cc(N3CC4(CC4)c4cnc(NC(C)=O)cc43)n2)CCOC1 (stereo not drawn) [Example 96, N-(1′-(6-(3-methoxytetrahydrofuran-3-yl)-4-methylpyridin-2-yl)-1′,2′-dihydrospiro[cyclopropane-1,3′-pyrrolo[3,2-c]pyridin]-6′-yl)acetamide]	–	10 to 100
CC(=O)Nc1cc2c(cn1)C1(CC1)CN2c1cc(C(C)C#N)nc(C(C)(F)F)n1 (stereo not drawn) [Example 302, N-(1′-(6-(1-cyanoethyl)-2-(1,1-difluoroethyl)pyrimidin-4-yl)-1′,2′-dihydrospiro[cyclopropane-1,3′-pyrrolo[3,2-c]pyridin]-6′-yl)acetamide]	–	100 to 1000
CC(=O)Nc1cc2c(cn1)C1(CC1)CN2c1cc(Oc2ccnnc2)nc(C(C)(F)F)n1 [Example 147, N-(1′-(2-(1,1-difluoroethyl)-6-(pyridazin-4-yloxy)pyrimidin-4-yl)-1′,2′-dihydrospiro[cyclopropane-1,3′-pyrrolo[3,2-c]pyridin]-6′-yl)acetamide trifluoroacetate]	–	≥ 1000
CO[C@H]1C[C@H](Oc2cc(N3CC4(CC4)c4cnc(NC(C)=O)cc43)nc(C(C)(F)F)c2)C1 [Example 92, N-(1′-(6-(1,1-difluoroethyl)-4-((1r,3r)-3-methoxycyclobutoxy)pyridin-2-yl)-1′,2′-dihydrospiro[cyclopropane-1,3′-pyrrolo[3,2-c]pyridin]-6′-yl)acetamide]	–	10 to 100
CC(=O)Nc1cc2c(cn1)C1(CC1)CN2c1cc(CCCO)nc(C(C)(F)F)n1 [Example 295, N-(1′-(2-(1,1-difluoroethyl)-6-(3-hydroxypropyl)pyrimidin-4-yl)-1′,2′-dihydrospiro[cyclopropane-1,3′-pyrrolo[3,2-c]pyridin]-6′-yl)acetamide]	–	10 to 100
CC(=O)Nc1cc2c(cn1)C1(CC1)CN2c1cc(C)nc(-c2ccccn2)n1 [Example 112, N-(1′-(6-methyl-2-(pyridin-2-yl)pyrimidin-4-yl)-1′,2′-dihydrospiro[cyclopropane-1,3′-pyrrolo[3,2-c]pyridin]-6′-yl)acetamide]	–	≥ 1000
